Assay results: patent publication US12370161B2, “Composition for treating atopy or pruritus comprising N-acetyl or N-acyl amino acid” (STEMDR INC., priority 2017, dated 2025)

Test system: atopic dermatitis-induced Balb/c mouse
Experiment: SCORAD clinical skin score, DNFB-induced atopic dermatitis in Balb/c mouse
Assay type: in vivo
Set-up: key to Mouse 1 Sum / Mean (of Sum, SCORAD) / Mouse 2 Sum / Mouse 3 Sum: sum of symptom grades, each 0 (none) to 3 (severe)
Conditions: DNFB Balb/c; for Mouse 1 Erythema: 0.1% in PBS, 200 μL on back skin daily day 22-28, grade 0-3 (0 no symptom, 1 mild, 2 moderate, 3 severe); for Mouse 1 Abrasion / Mouse 1 Dryness / Mouse 1 Edema / Mouse 1 Eschar / Mouse 1 Lichenification / Mouse 1 Sum / Mouse 2 Abrasion / Mouse 2 Dryness / Mouse 2 Edema / Mouse 2 Erythema / Mouse 2 Eschar / Mouse 2 Lichenification / Mouse 2 Sum / Mouse 3 Abrasion / Mouse 3 Dryness / Mouse 3 Edema / Mouse 3 Erythema / Mouse 3 Eschar / Mouse 3 Lichenification / Mouse 3 Sum / Mean (of Sum, SCORAD): 0.1% topical day 22-28; for Mouse 1 Abrasion / Mouse 1 Dryness / Mouse 1 Edema / Mouse 1 Eschar / Mouse 1 Lichenification / Mouse 2 Abrasion / Mouse 2 Dryness / Mouse 2 Edema / Mouse 2 Erythema / Mouse 2 Eschar / Mouse 2 Lichenification / Mouse 3 Abrasion / Mouse 3 Dryness / Mouse 3 Edema / Mouse 3 Erythema / Mouse 3 Eschar / Mouse 3 Lichenification: grade 0-3; for Mouse 1 Sum / Mouse 2 Sum / Mouse 3 Sum: overall dermatitis score, sum of individual scores; for Mean (of Sum, SCORAD): mean of 3 mice
Experimental: In order to induce atopy-like dermatitis in Balb/c mice, DNFB sensitization was induced by applying 100 μL of 0.35% 2,4-dinitrofluorobenzene (DNFB) (Sigma, USA) in acetone/olive oil (3:1) on the shaved back skin of the mice. Then, dermatitis was induced by applying 100 μL of 0.25% DNFB on days 6, 9, 12, 15, 18 21, 24 and 27 on the shaved back skin. Control mice were treated with a vehicle of the same volume (FIG. 1A).
After dissolving an N-acetyl or N-acylamino acid in phosphate-buffered saline to 0.1%, 200 μL of the solution was applied on the back skin of the mice every day, from day 22 until day 28 for the Balb/c atopic dermatitis model, and from day 15 until day 21 for the Nc/Nga atopic dermatitis model. When the N-acetyl or N-acylamino acid was treated together with DNFB, they were treated with 12-hour intervals in order to avoid direct reaction between the DNFB and the N-acetyl or N-acylamino acid. A non-treated group and a 2,4-dinitrofluorobenzene (DNFB) group were treated with phosphate-buffered saline of the same volume (FIGS. 1A-1B). As the N-acetylamino acid, products purchased from Sigma-Aldrich (USA), MP scientific (USA), TCI (Tokyo Chemical Industry, Japan), Santacruz (USA), etc. were used without purification.
The degree of skin soothing and the severity of atopic dermatitis were evaluated macroscopically according to the previously established SCORAD (SCORing Atopic Dermatitis) method (Oranje et al., 2007). The degree of symptoms such as edema, erythema, eschar, dryness, abrasion, lichenification, etc. was graded from 0 to 3 (0, no symptom; 1, mild; 2, moderate; 3, severe). The overall dermatitis score was determined from the sum of all individual scores (Table 1). The assessment was performed by an investigator who was blind to the grouping of the mice.

CC(=O)N[C@@H](CCC(N)=O)C(=O)O [N-acetyl-L-glutamine] was tested, and the “Mouse 1 Erythema” value was 2, the “Mouse 1 Abrasion” value was 2 and the “Mouse 1 Dryness” value was 2. The “Mouse 1 Edema” value was 2, the “Mouse 1 Eschar” value was 2 and the “Mouse 1 Lichenification” value was 3. For the same molecule, the “Mouse 1 Sum” value was 13, the “Mouse 2 Abrasion” value was 2 and the “Mouse 2 Dryness” value was 2. For the same molecule, the “Mouse 2 Edema” value was 2, the “Mouse 2 Erythema” value was 2 and the “Mouse 2 Eschar” value was 2. For the same molecule, the “Mouse 2 Lichenification” value was 2, the “Mouse 2 Sum” value was 12 and the “Mouse 3 Abrasion” value was 2. The “Mouse 3 Dryness” value was 2, the “Mouse 3 Edema” value was 2 and the “Mouse 3 Erythema” value was 2. For the same molecule, the “Mouse 3 Eschar” value was 2, the “Mouse 3 Lichenification” value was 1 and the “Mouse 3 Sum” value was 11. For the same molecule, the “Mean (of Sum, SCORAD)” value was 12.
CC(=O)N[C@@H](CC(N)=O)C(=O)O [N-acetyl-L-asparagine] was tested, and the “Mouse 1 Erythema” value was 3, the “Mouse 1 Abrasion” value was 3 and the “Mouse 1 Dryness” value was 3. The “Mouse 1 Edema” value was 2, the “Mouse 1 Eschar” value was 2 and the “Mouse 1 Lichenification” value was 2. The Mouse 1 Sum was 15, the “Mouse 2 Abrasion” value was 3 and the “Mouse 2 Dryness” value was 2. The “Mouse 2 Edema” value was 2, the “Mouse 2 Erythema” value was 2 and the “Mouse 2 Eschar” value was 3. For the same molecule, the “Mouse 2 Lichenification” value was 3, the “Mouse 2 Sum” value was 14 and the “Mouse 3 Abrasion” value was 2. The “Mouse 3 Dryness” value was 3, the “Mouse 3 Edema” value was 3 and the “Mouse 3 Erythema” value was 3. For the same molecule, the “Mouse 3 Eschar” value was 3, the “Mouse 3 Lichenification” value was 2 and the “Mouse 3 Sum” value was 16. The “Mean (of Sum, SCORAD)” value was 15.
In the case of CC(=O)N[C@@H](CC(=O)O)C(=O)O [N-acetyl-L-aspartic acid], the “Mouse 1 Erythema” value is reported as 3, the “Mouse 1 Abrasion” value is reported as 2 and the “Mouse 1 Dryness” value is reported as 2. The “Mouse 1 Edema” value was 2, the “Mouse 1 Eschar” value was 2 and the “Mouse 1 Lichenification” value was 2. For the same molecule, the “Mouse 1 Sum” value was 13, the “Mouse 2 Abrasion” value was 2 and the “Mouse 2 Dryness” value was 3. The “Mouse 2 Edema” value was 2, the “Mouse 2 Erythema” value was 3 and the “Mouse 2 Eschar” value was 2. The “Mouse 2 Lichenification” value was 2, the “Mouse 2 Sum” value was 14 and the “Mouse 3 Abrasion” value was 2. The “Mouse 3 Dryness” value was 2, the “Mouse 3 Edema” value was 2 and the “Mouse 3 Erythema” value was 3. The “Mouse 3 Eschar” value was 2, the “Mouse 3 Lichenification” value was 1 and the “Mouse 3 Sum” value was 12. The “Mean (of Sum, SCORAD)” value was 13.
In the case of CC(=O)N[C@@H](CO)C(=O)O [N-acetyl-L-serine], the “Mouse 1 Erythema” value is reported as 3, the “Mouse 1 Abrasion” value is reported as 2 and the “Mouse 1 Dryness” value is reported as 2. For the same molecule, the “Mouse 1 Edema” value was 2, the “Mouse 1 Eschar” value was 2 and the “Mouse 1 Lichenification” value was 2. For the same molecule, the “Mouse 1 Sum” value was 13, the “Mouse 2 Abrasion” value was 2 and the “Mouse 2 Dryness” value was 3. For the same molecule, the “Mouse 2 Edema” value was 2, the “Mouse 2 Erythema” value was 3 and the “Mouse 2 Eschar” value was 2. The “Mouse 2 Lichenification” value was 3, the “Mouse 2 Sum” value was 15 and the “Mouse 3 Abrasion” value was 2. The “Mouse 3 Dryness” value was 3, the “Mouse 3 Edema” value was 2 and the “Mouse 3 Erythema” value was 3. The “Mouse 3 Eschar” value was 2, the “Mouse 3 Lichenification” value was 2 and the “Mouse 3 Sum” value was 14. For the same molecule, the “Mean (of Sum, SCORAD)” value was 14.
With CC(=O)N[C@@H](CC(C)C)C(=O)O [N-acetyl-L-leucine] the “Mouse 1 Erythema” value was 3, the “Mouse 1 Abrasion” value was 2 and the “Mouse 1 Dryness” value was 3. The “Mouse 1 Edema” value was 2, the “Mouse 1 Eschar” value was 2 and the “Mouse 1 Lichenification” value was 2. For the same molecule, the “Mouse 1 Sum” value was 14, the “Mouse 2 Abrasion” value was 2 and the “Mouse 2 Dryness” value was 3. For the same molecule, the “Mouse 2 Edema” value was 2, the “Mouse 2 Erythema” value was 3 and the “Mouse 2 Eschar” value was 2. The “Mouse 2 Lichenification” value was 3, the “Mouse 2 Sum” value was 15 and the “Mouse 3 Abrasion” value was 2. The “Mouse 3 Dryness” value was 3, the “Mouse 3 Edema” value was 2 and the “Mouse 3 Erythema” value was 3. The “Mouse 3 Eschar” value was 2, the “Mouse 3 Lichenification” value was 1 and the “Mouse 3 Sum” value was 13. For the same molecule, the “Mean (of Sum, SCORAD)” value was 14.
